Results published in US11390609B2, “Rho-associated protein kinase inhibitor, pharmaceutical composition comprising same, and preparation method and use thereof” (BEIJING TIDE PHARMACEUTICAL CO., LTD., priority 2017, dated 2022).
One block for each molecule: values may come before it.

Assays:
ROCK1 = ROCK1 (Homo sapiens (Human), UniProt Q13464); test: ROCK1 kinase IC50 assay (biological test method similar to the ROCK2 assay); format: biochemical
Procedure, shortened: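 Compound dilution series (9 concentrations, top solution 10000 nM, DMSO-containing buffer) incubated 2 h at room temperature with kinase, STK-S2 substrate and ATP (5× working solutions of 1.5 µM each). Phosphorylation detected by HTRF (665/615 nm emission ratio) after 1 h; inhibition relative to full-reaction and kinase-free wells, fitted for IC50.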

ROCK2 = ROCK2 (Homo sapiens, UniProt O75116); test: ROCK2 kinase IC50 assay (CISBIO HTRF KinEASE-STK S2 kit); format: biochemical; conditions: incubated at room temperature for 2 hours
Method: The kinase IC50 was determined by a commercialized CISBIO kinase detection kit, HTRF KinEASE-STK S2 kit (62ST2PEC). ROCK2 (01-119) employed in the reaction was purchased from Carna Biosciences.
Before the assay, the following working solutions as needed were formulated with corresponding reagents according to the instruction of the kinase detection kit: 1×kinase buffer, 5×STK-52 substrate working solution (1.5 μM) and 5×ATP working solution (1.5 μM), 5×ROCK2 kinase working solution, 4×Streptavidin-XL665 working solution, and 4×STK-Ab-Cryptate 2 detection solution. Then the assay was performed according to the following procedure.
A solution of a compound at a concentration of 10000 nM was prepared with the 1×kinase buffer containing 2.5% DMSO. Gradient dilution of the solution of the compound was performed with the kinase buffer containing DMSO, so as to obtain solutions of a test compound at 9 different concentrations. In addition to wells of test compounds, a positive well (containing all the reagents except the compound) and a negative well (containing all the reagents except the test compound and kinase) were set. Except for the control wells (positive and negative wells), a solution of a test compound (4 μL) was added to each of the reaction wells, and a solution of 2.5% DMSO was added to the control wells. Then the substrate ([…], 2 μL. 5×STK-S2 substrate working solution) was added to each of the reaction wells. The 5×ROCK2 kinase working solution (2 μL, containing 1.4 ng ROCK2 kinase) was added to each of the reaction wells except for the negative well, the volume of which was made up with the 1×kinase buffer (2 μL). The 5×ATP working solution (2 μL) was added to each of the reaction wells, and the mixtures were incubated at room temperature for 2 hours. After the kinase reaction was complete, the 4×Streptavidin-XL665 working solution was added to each of the reaction wells, the solutions were mixed, followed by immediate addition of the 4×STK-Ab-Cryptate 2 detection solution (5 μL), and the mixtures were incubated at room temperature for 1 hour. The fluorescence signal was read on ENVISION (Perkinelmer) (excitation wavelength: 320 nm, and emission wavelength: 665 nm and 615 nm). The inhibitory rate in each well was calculated based on the fluorescence intensity value: ER (Emission Ratio)=(fluorescence intensity at 665 nm/fluorescence intensity at 615 nm); inhibitory rate=(ERpositive−ERtest compound)/(ERpositive−ERnegative)*100%. Curves were plotted and fitted to obtain the median inhibitory concentration (IC50) of each teat compound with the PRISM 5.0 software.

ROCK1, sequence (Q13464 whole entry, species assumed): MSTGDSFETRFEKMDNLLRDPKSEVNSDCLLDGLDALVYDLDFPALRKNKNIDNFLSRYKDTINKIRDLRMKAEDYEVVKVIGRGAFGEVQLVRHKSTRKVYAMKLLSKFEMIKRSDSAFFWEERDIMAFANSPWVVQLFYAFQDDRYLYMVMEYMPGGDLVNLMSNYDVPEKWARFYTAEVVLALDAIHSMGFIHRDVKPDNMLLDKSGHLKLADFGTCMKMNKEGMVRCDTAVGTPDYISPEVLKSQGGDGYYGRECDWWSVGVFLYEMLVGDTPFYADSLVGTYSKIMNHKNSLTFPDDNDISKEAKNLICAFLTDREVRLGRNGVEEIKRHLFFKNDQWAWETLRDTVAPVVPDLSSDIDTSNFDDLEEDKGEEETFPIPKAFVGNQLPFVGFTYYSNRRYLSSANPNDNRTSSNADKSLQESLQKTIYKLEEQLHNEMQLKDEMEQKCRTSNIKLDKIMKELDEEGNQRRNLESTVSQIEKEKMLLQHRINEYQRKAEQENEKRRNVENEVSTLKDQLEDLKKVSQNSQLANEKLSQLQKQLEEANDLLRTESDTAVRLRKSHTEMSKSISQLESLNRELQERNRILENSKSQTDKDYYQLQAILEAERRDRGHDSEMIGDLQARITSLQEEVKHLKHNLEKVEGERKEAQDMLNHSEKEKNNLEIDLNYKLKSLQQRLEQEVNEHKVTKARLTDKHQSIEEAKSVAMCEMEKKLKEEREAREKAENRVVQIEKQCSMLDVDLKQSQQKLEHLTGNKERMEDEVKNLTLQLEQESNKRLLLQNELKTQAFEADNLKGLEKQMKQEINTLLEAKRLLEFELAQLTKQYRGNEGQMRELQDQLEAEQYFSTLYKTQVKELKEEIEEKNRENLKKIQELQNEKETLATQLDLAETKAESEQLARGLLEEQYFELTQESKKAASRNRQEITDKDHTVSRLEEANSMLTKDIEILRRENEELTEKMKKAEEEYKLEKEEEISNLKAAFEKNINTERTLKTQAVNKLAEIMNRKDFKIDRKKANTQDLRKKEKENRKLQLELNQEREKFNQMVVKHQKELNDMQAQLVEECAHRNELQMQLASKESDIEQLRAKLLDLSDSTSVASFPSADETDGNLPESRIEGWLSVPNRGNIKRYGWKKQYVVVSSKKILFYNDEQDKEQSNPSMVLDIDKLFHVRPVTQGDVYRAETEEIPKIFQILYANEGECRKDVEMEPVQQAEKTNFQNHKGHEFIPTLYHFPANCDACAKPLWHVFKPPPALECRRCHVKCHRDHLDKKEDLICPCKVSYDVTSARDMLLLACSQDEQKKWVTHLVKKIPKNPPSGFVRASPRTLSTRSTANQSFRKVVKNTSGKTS

Structure (SMILES): O=C(Nc1ccncc1Cl)N1Cc2ccc(-c3nccc(Nc4ccc5[nH]ncc5c4)n3)cc2C1 [TDI01374, 5-(4-((1H-indazol-5-yl)amino)pyrimidin-2-yl)-N-(3-chloropyridin-4-yl)isoindoline-2-carboxamide]
IC50 (ROCK1): > 10000 nM
IC50 (ROCK2): 64 nM

Structure (SMILES): CN(C(=O)c1cc2ccc(-c3nccc(Nc4ccc5[nH]ncc5c4)n3)cc2s1)C1CCOC1 (centres unmarked) [TDI01392, 6-(4-((1H-indazol-5-yl)amino)pyrimidin-2-yl)-N-methyl-N-(tetrahydrofuran-3-yl)ben-zo[b]thiophene-2-carboxamide]
IC50 (ROCK1): > 10000 nM
IC50 (ROCK2): 172 nM

Structure (SMILES): O=C(Nc1ccncc1F)c1cc2ccc(-c3nccc(Nc4ccc5[nH]ncc5c4)n3)cc2[nH]1 [TDI01394, 6-(4-((1H-indazol-5-yl)amino)pyrimidin-2-yl)-N-(3-fluoropyridin-4-yl)-1H-indole-2-carboxamide]
IC50 (ROCK1): > 10000 nM
IC50 (ROCK2): 28 nM

Structure (SMILES): CN(C(=O)c1cc2ccc(-c3nccc(Nc4ccc(-c5cn[nH]c5)cc4)n3)cc2[nH]1)C1CCOC1 (centres unmarked) [TDI01419, 6-(4-((4-(1H-pyrazol-4-yl)phenyl)amino)pyrimidin-2-yl)-N-methyl-N-(tetrahydrofuran-3-yl)-1H-indole-2-carboxamide]
IC50 (ROCK1): > 10000 nM
IC50 (ROCK2): 385 nM

Structure (SMILES): CN(CC(F)(F)F)C(=O)c1cc2ccc(-c3nccc(Nc4ccc(-c5cn[nH]c5)cc4)n3)cc2s1 [TDI01428, 6-(4-((4-(1H-pyrazol-4-yl)phenyl)-amino)-pyrimidin-2-yl)-N-methyl-N-(2,2,2-trifluoroethyl)-benzo[b]-thiophene-2-carboxamide]
IC50 (ROCK1): > 10000 nM
IC50 (ROCK2): 69 nM

Structure (SMILES): CN(CC(F)(F)F)C(=O)c1cc2cc(-c3nccc(Nc4ccc(-c5cn[nH]c5)cc4)n3)ccc2[nH]1 [TDI01429, 5-(4-((4-(1H-pyrazol-4-yl)phenyl)amino)pyrimidin-2-yl)-N-methyl-N-(2,2,2-trifluoroethyl)-1H-indole-2-carboxamide]
IC50 (ROCK1): > 10000 nM
IC50 (ROCK2): 99 nM

Structure (SMILES): O=C(c1cc2ccc(-c3nccc(Nc4ccc(-c5cn[nH]c5)cc4)n3)cc2[nH]1)N1CC(O)C1 [TDI01437, (6-(4-((4-(1H-pyrazol-4-yl)phenyl)amino)pyrimidin-2-yl)-1H-indol-2-yl)(3-hydroxyazetidin-1-yl)methanone]
IC50 (ROCK1): > 10000 nM
IC50 (ROCK2): 247 nM

Structure (SMILES): O=C(c1cc2ccc(-c3nccc(Nc4ccc(-c5cn[nH]c5)cc4)n3)cc2[nH]1)N1CC[C@H](O)C1 [TDI01438, (S)-(6-(4-((4-(1H-pyrazol-4-yl)phenyl)amino)pyrimidin-2-yl)-1H-indol-2-yl)(3-hydroxypyrrolidin-1-yl)methanone]
IC50 (ROCK1): > 10000 nM
IC50 (ROCK2): 402 nM

Structure (SMILES): CC(C)NC(=O)c1cc2ccc(-c3nc(Nc4ccc(-c5cn[nH]c5)cc4)c4sccc4n3)cc2s1 [TDI01439, 6-(4-((4-(1H-pyrazol-4-yl)phenyl)-amino)thieno-[3,2-d]pyrimidin-2-yl)-N-isopropyl-benzo-[b]thiophene-2-carboxamide]
IC50 (ROCK1): > 10000 nM
IC50 (ROCK2): 203 nM

Structure (SMILES): CC1(F)CN(C(=O)c2cc3ccc(-c4nccc(Nc5ccc(-c6cn[nH]c6)cc5)n4)cc3[nH]2)C1 [TDI01441, (6-(4-((4-(1H-pyrazol-4-yl)phenyl)amino)pyrimidin-2-yl)-1H-indol-2-yl)(3-fluoro-3-methylazetidin-1-yl)methanone]
IC50 (ROCK1): 6070 nM
IC50 (ROCK2): 181 nM

Structure (SMILES): O=C(c1cc2ccc(-c3nccc(Nc4ccc(-c5cn[nH]c5)cc4)n3)cc2[nH]1)N1CCC(C(F)(F)F)C1 (centres unmarked) [TDI01444, (6-(4-((4-(1H-pyrazol-4-yl)phenyl)amino)pyrimidin-2-yl)-1H-indol-2-yl)(3-(trifluoromethyl)pyrrolidin-1-yl)methanone]
IC50 (ROCK1): 8260 nM
IC50 (ROCK2): 32 nM

Structure (SMILES): O=C(c1cc2ccc(-c3nc(Nc4ccc(-c5cn[nH]c5)cc4)c4sccc4n3)cc2[nH]1)N1CCOCC1 [TDI01450, (6-(4-((4-(1H-pyrazol-4-yl)phenyl)amino)thieno [3,2-d]pyrimidin-2-yl)-1H-indol-2-yl)(morpholino)methanone]
IC50 (ROCK1): > 10000 nM
IC50 (ROCK2): 453 nM

Structure (SMILES): O=C(c1cc2ccc(-c3nccc(Nc4ccc(-c5cn[nH]c5)cc4)n3)cc2[nH]1)N1CC(F)C1 [TDI01455, (6-(4-((4-(1H-pyrazol-4-yl)phenyl)amino)pyrimidin-2-yl)-1H-indol-2-yl)(3-fluoroazetidin-1-yl)methanone]
IC50 (ROCK1): > 10000 nM
IC50 (ROCK2): 29 nM

Structure (SMILES): O=C(NCC(F)(F)F)c1cc2ccc(-c3nccc(Nc4ccc(-c5cn[nH]c5)cc4)n3)cc2s1 [TDI01456, 6-(4-((4-(1H-pyrazol-4-yl)phenyl)-amino)-pyrimidin-2-yl)-N-(2,2,2-trifluoroethyl)-benzo[b]-thiophene-2-carboxamide]
IC50 (ROCK1): > 10000 nM
IC50 (ROCK2): 15 nM

Structure (SMILES): CC(NC(=O)c1cc2ccc(-c3nccc(Nc4ccc(-c5cn[nH]c5)cc4)n3)cc2n1C)C(F)(F)F (centres unmarked) [TDI01457, 6-(4-((4-(1H-pyrazol-4-yl)phenyl)amino)pyrimidin-2-yl)-1-methyl-N-(1,1,1-trifluoropropan-2-yl)-1H-indole-2-carboxamide]
IC50 (ROCK1): 4890 nM
IC50 (ROCK2): 395 nM

Structure (SMILES): O=C(c1cc2ccc(-c3nccc(Nc4ccc(-c5cn[nH]c5)cc4)n3)cc2[nH]1)N1CCC(F)(F)C1 [TDI01463, (6-(4-((4-(1H-pyrazol-4-yl)phenyl)amino)pyrimidin-2-yl)-1H-indol-2-yl)(3,3-difluoropyrrolidin-1-yl)methanone]
IC50 (ROCK1): > 10000 nM
IC50 (ROCK2): 11 nM

Stronger by IC50 (ROCK1), values ahead:

IC50 (ROCK1): 456 nM
IC50 (ROCK2): 18 nM
Structure (SMILES): O=C(NC1CCCN(C2CCOCC2)C1)c1cc2ccc(-c3nccc(Nc4ccc5[nH]ncc5c4)n3)cc2[nH]1 (centres unmarked) [TDI01390, 6-(4-((1H-indazol-5-yl)amino)-pyrimidin-2-yl)-N-(1-(tetrahydro-2H-pyran-4-yl)piperidin-3-yl)-1H-indole-2-carboxamide]

IC50 (ROCK1): 3000 nM
IC50 (ROCK2): 110 nM
Structure (SMILES): O=C(Oc1ccccc1)N1Cc2ccc(-c3nccc(Nc4ccc5[nH]ncc5c4)n3)cc2C1 [TDI01403, phenyl 5-(4-((1H-indazol-5-yl)amino)pyrimidin-2-yl)isoindoline-2-caiboxylate]

IC50 (ROCK1): 1520 nM
IC50 (ROCK2): 35 nM
Structure (SMILES): O=C(c1cc2ccc(-c3nc(Nc4ccc5[nH]ncc5c4)c4sccc4n3)cc2[nH]1)N1CCC2(CCNCC2)CC1 [TDI01404, (6-(4-((1H-indazol-5-yl)amino)-thieno[3,2-d]pyrimidin-2-yl)-1H-indol-2-yl)(3,9-diazaspiro[5.5]undecan-3-yl)methanone]

IC50 (ROCK1): 4060 nM
IC50 (ROCK2): 160 nM
Structure (SMILES): CNC(=O)c1cc2ccc(-c3nc(Nc4ccc5[nH]ncc5c4)c4sccc4n3)cc2[nH]1 [TDI01405, 6-(4-((1H-indazol-5-yl)amino)-thieno[3,2-d]pyrimidin-2-yl)-N-methyl-1H-indole-2-carboxamide]

IC50 (ROCK1): 4340 nM
IC50 (ROCK2): 203 nM
Structure (SMILES): CC1COCCN1C(=O)c1cc2ccc(-c3nccc(Nc4ccc(-c5cn[nH]c5)cc4)n3)cc2[nH]1 (centres unmarked) [TDI01431, (6-(4-((4-(1H-pyrazol-4-yl)phenyl)amino)pyrimidin-2-yl)-1H-indol-2-yl)(3-methylmorpholino) methanone]

IC50 (ROCK1): 3000 nM
IC50 (ROCK2): 64 nM
Structure (SMILES): N#CC1CCN(C(=O)c2cc3ccc(-c4nccc(Nc5ccc(-c6cn[nH]c6)cc5)n4)cc3[nH]2)CC1 [TDI01445, 1-(6-(4-((4-(1H-pyrazol-4-yl)phenyl)amino)pyrimidin-2-yl)-1H-indole-2-carbonyl)piperidine-4-carbonitrile]

IC50 (ROCK1): 3000 nM
IC50 (ROCK2): 13 nM
Structure (SMILES): N#CC1CCN(C(=O)c2cc3ccc(-c4nccc(Nc5ccc(-c6cn[nH]c6)cc5)n4)cc3[nH]2)C1 (centres unmarked) [TDI01448, 1-(6-(4-((4-(1H-pyrazol-4-yl)phenyl)amino)pyrimidin-2-yl)-1H-indole-2-carbonyl)pyrrolidine-3-carbonitrile]

IC50 (ROCK1): 4530 nM
IC50 (ROCK2): 140 nM
Structure (SMILES): CC1(C#N)CN(C(=O)c2cc3ccc(-c4nccc(Nc5ccc(-c6cn[nH]c6)cc5)n4)cc3[nH]2)C1 [TDI01461, 1-(6-(4-((4-(1H-pyrazol-4-yl)phenyl)amino)pyrimidin-2-yl)-1H-indole-2-carbonyl)-3-methylazetidine-3-carbonitrile]

IC50 (ROCK1): 2280 nM
IC50 (ROCK2): 175 nM
Structure (SMILES): O=C(c1cc2ccc(-c3nccc(Nc4ccc(-c5cn[nH]c5)cc4)n3)cc2[nH]1)N1CCC2(CCN2)CC1 [TDI01464, (6-(4-((4-(1H-pyrazol-4-yl)phenyl)amino)pyrimidin-2-yl)-1H-indol-2-yl)(1,7-diazaspiro[3.5]nonan-7-yl)methanone]
